Measurements taken from patent US8361988B2, “Nucleoside and nucleotide analogues with quaternary carbon centers and methods of use” (Institut de Recherches Cliniques de Montreal, priority 2007, dated 2013).

How the values were obtained:
[1] = molecular target: T1, Drosophila melanogaster dNK (Drosophila melanogaster, UniProt Q9XZT6); assay: Phosphorylation assay (spectrophotometric coupled-enzyme), D. melanogaster dNK; format: biochemical; conditions: substrate at 100 μM, 37° C., 1 mM ATP, triplicate
T1 sequence (Q9XZT6 1-250): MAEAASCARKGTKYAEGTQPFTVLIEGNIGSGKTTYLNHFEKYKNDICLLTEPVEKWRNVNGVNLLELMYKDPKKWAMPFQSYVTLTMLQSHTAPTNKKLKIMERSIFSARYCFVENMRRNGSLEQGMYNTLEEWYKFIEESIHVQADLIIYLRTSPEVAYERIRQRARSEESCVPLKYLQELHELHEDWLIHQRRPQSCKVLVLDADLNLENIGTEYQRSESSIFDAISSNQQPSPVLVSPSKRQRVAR
Protocol: Compounds of the invention were also tested in a phosphorylation assay using three deoxynucleoside kinases. […] The compounds were at substrate concentration of 100 μM.
Kinetic assay. […] Briefly, the individual nucleosides at 100 μM were prepared in reaction buffer containing 50 mM Tris-HCl (pH 7.5), 0.1 M KCl, 5 mM MgCl2, 1 mM DTT, 1 mM ATP, 0.21 mM phosphoenolpyruvate, 0.18 mM NADH, and 2 units/ml pyruvate kinase and 2 units/ml lactate dehydrogenase (Roche Biochemicals, Indianapolis, Ind.). Assays were performed at 37° C. by measuring the absorbance change at 340 nm. The enzyme amount was adjusted to limit NADH turnover to 10% over the time of the experiment. All experiments were performed in triplicate.

[2] = molecular target: Thermotoga maritima thymidine kinase (Thermotoga maritima, UniProt Q9WYN2); assay: Phosphorylation assay (spectrophotometric coupled-enzyme), T. maritima TK; format: biochemical; conditions: substrate at 100 μM, 37° C., 1 mM ATP, triplicate
Protocol: Compounds of the invention were also tested in a phosphorylation assay using three deoxynucleoside kinases. The kinases include human dCK, which is responsible for the activation of numerous nucleoside analog prodrugs; Drosophila melanogaster dNK, which is the fastest known kinases with the broadest substrate specificity profile; and Thermotoga maritima thymidine kinase, which is a good surrogate for human thymidine kinase 1, a member of the distinct type II kinase subfamily. The compounds were at substrate concentration of 100 μM.
Kinetic assay. Substrate phosphorylation was determined using a spectrophotometric coupled-enzyme assay (Munch-Petersen et al. (2000) J. Biol. Chem. vol. 275p. 66′73-66′79; Schelling et al. (2001) Anal. Biochem vol. 295 p. 82-8′7). Briefly, the individual nucleosides at 100 μM were prepared in reaction buffer containing 50 mM Tris-HCl (pH 7.5), 0.1 M KCl, 5 mM MgCl2, 1 mM DTT, 1 mM ATP, 0.21 mM phosphoenolpyruvate, 0.18 mM NADH, and 2 units/ml pyruvate kinase and 2 units/ml lactate dehydrogenase (Roche Biochemicals, Indianapolis, Ind.). Assays were performed at 37° C. by measuring the absorbance change at 340 nm. The enzyme amount was adjusted to limit NADH turnover to 10% over the time of the experiment. All experiments were performed in triplicate.

Chain of Thermotoga maritima thymidine kinase (Q9WYN2 whole entry): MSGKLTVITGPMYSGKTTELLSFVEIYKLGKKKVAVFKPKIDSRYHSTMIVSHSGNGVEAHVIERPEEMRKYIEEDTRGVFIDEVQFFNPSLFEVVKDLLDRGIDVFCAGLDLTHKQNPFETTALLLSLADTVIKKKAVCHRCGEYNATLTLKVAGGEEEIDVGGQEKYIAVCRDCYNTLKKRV

| SMILES | D. melanogaster dNK substrate phosphorylation [1] | T. maritima TK substrate phosphorylation [2] | D. melanogaster dNK substrate phosphorylation ([1]; listed as LCB-1023-1) | T. maritima TK substrate phosphorylation ([2]; listed as LCB-1023-1) |
| --- | --- | --- | --- | --- |
| COC(=O)C1(C)CC(n2cc(C)c(=O)[nH]c2=O)OC1CO (racemic) [LCB-1010-2, (±) methyl 2-(hydroxymethyl)-3-methyl-5-(5-methyl-2,4-dioxo-3,4-dihydropyrimidin-1(2H)-yl)tetrahydrofuran-3-carboxylate] | 2.13 10^6 μmol/min mg | 5.6 10^−3 μmol/min mg | – | – |
| Cc1cn([C@@H]2CC(C)(CO)[C@@H](CO)O2)c(=O)[nH]c1=O (mixture of isomers) [LCB-1004-2] | 3.7 10^6 μmol/min mg | <1 10^−3 μmol/min mg | – | – |
| Cc1cn([C@H]2C[C@H](O)[C@@H](CO)O2)c(=O)[nH]c1=O [Thymidine, reference compound] | – | 830 10^−3 μmol/min mg | – | – |
| COC(=O)C1(C)C[C@H](n2cc(C)c(=O)[nH]c2=O)O[C@@H]1CO (mixture of isomers) [LCB-1009-2] | 3.44 10^6 μmol/min mg | 4.9 10^−3 μmol/min mg | – | – |
| COC(=O)C1(C)C[C@H](n2cc(F)c(=O)[nH]c2=O)O[C@@H]1CO (mixture of isomers) [LCB-1023, 5-(5-Fluoro-2,4-dioxo-3,4-dihydro-2H-pyrimidin-1-yl)-2-hydroxymethyl-3-methyl-tetrahydro-furan-3-carhoxylic acid methyl ester] | – | – | 0.33 10^6 μmol/min mg | 2.1 10^−3 μmol/min mg |
| Cc1cn([C@H]2CC(C)(CO)[C@@H](CO)O2)c(=O)[nH]c1=O (mixture of isomers) [LCB-1007-2] | 0.74 10^6 μmol/min mg | 2.2 10^−3 μmol/min mg | – | – |
